Entries after “also recorded” stand apart in the source; their conditions may differ.
Tests used:
SuperSalt Taq Polymerase = test: Compatibility of dyes with PCR amplification (no inhibition of the PCR); assay type: biochemical; conditions: highest tested concentration which did not inhibit the PCR
Description: The Table gives the upper concentration of the agent at which there is no inhibition of the PCR. Two concentrations of Taq polymerase were compared: 5 and 10 units. Experimental details are given in example 3.
PCR was designed for the amplification of the 35 promoter element of DNA sample of a genetically modified organism (GMO).
For each tested light absorbing agent, PCR were performed with different concentrations of agent: 0.005, 0.01, 0.02, 0.05, 0.1, 0.5, 1 and 2% and either 5 U or 10 U of Taq polymerase in PCR mix. Controls tubes were performed without light absorbing agent with 5 U or 10 U of enzyme.
The PCR performed in PCR tubes in a thermocycler (Eppendorf, Hamburg, Germany). Samples were pre incubated for 10 min at 25° C. and then were first denatured at 94° C. for 3 min. Then 40 cycles of amplification were performed consisting of 30 sec at 95° C., 90 sec at 60° C. and 30 sec at 72° C.
After PCR, 1 μL of the PCR product was analyzed by electrophoresis (Agilent Technologies, 2100 Bioanalyzer). The expected size of the amplicon was 79 bp.

[1] = Absorbance spectrum of light absorbing agents; assay type: physicochemical; conditions: light absorbing agent at 1%; for Absorbance spectrum (estimated min-max): estimated width of band covering around 90% of the dye absorbance
From the text: (§1) Table 1 summarizes the properties of different light absorbing agents tested according to the invention. The Table presents the absorbance peak and the estimated width of the absorbance band, based on the experimental spectra covering around 90% of the dye absorbance. The intrinsic fluorescence of the agents at the emission wavelength of 570 nm (green channel) or at the emission of 666 nm (red channel) is indicated. Intrinsic fluorescence is expressed as the percentage of the fluorescence compared to cy3 fluorescence if present at 1 μM for green channel (=100%) or Oyster645 fluorescence if present at 1 μM for red channel (=100%). Experimental details are given in example 4.

[2] = Intrinsic fluorescence of light absorbing agents at the emission wavelengths (green/red channel); assay type: physicochemical; conditions: for Intrinsic fluorescence (emission 666 nm) in % / Intrinsic fluorescence (emission 570 nm) in %: agent at 1%; for Intrinsic fluorescence (emission 666 nm) in %: compared to Oyster645 fluorescence at 1 μM (=100%); for Fluorescence at the emission wavelength of 570 nm (in words) / Intrinsic fluorescence (emission 570 nm) in %: green channel; for Intrinsic fluorescence (emission 570 nm) in %: compared to cy3 fluorescence at 1 μM (=100%)
From the text: This concept is exemplified in Table 1. The dye Azure A is a good example. It can be used for the reduction of the fluorescence of a solution at the excitation/emission wavelength of 532/570 (green channel). […] However, the dye is fluorescent at the emission wavelength of 666 nm used in the red channel.
The dye Azure A is thus not capable of reducing the fluorescent of the solution beyond the intrinsic fluorescence of the light absorbing agent at the emission wavelength in the red channel. In presence of this agent, the fluorescence is about 38% (data not shown) the fluorescence value of the solution in the absence of light absorbing agent (=100%).
as §1

| Molecule | Maximum concentration in PCR (%) with 5 U Taq polymerase (SuperSalt Taq Polymerase) [%] | Maximum concentration in PCR (%) with 10 U Taq polymerase (SuperSalt Taq Polymerase) [%] | Absorbance spectrum peak [1] | Absorbance spectrum (estimated min-max) [1] | Intrinsic fluorescence (emission 666 nm) in % ([2]; red channel) [%] | Fluorescence at the emission wavelength of 666 nm (in words) ([2]; red channel) | Fluorescence at the emission wavelength of 570 nm (in words) [2] | Fluorescence of the solution in presence of the agent ([2]; red channel, solution without light absorbing agent = 100%, data not shown) | Intrinsic fluorescence (emission 570 nm) in % [2] [%] |
| --- | --- | --- | --- | --- | --- | --- | --- | --- | --- |
| Blue Intense [(K) Blue Intense] | 0.05 | 0.1 | 635 nm | 525-690 | 47 | fluorescent |  |  |  |
| CN(C)c1ccc2nc3ccc(N)cc3[s+]c2c1.[Cl-] [(E) Azure A, Azure A] |  |  | 636 nm | 450-700 | 38 | fluorescent | does not fluoresce | about 38% |  |
| CCN(Cc1cccc(S(=O)(=O)[O-])c1)c1ccc(C(=C2C=CC(=[N+](CC)Cc3cccc(S(=O)(=O)[O-])c3)C=C2)c2ccccc2S(=O)(=O)[O-])cc1.[Na+].[Na+] [(L) E133, E133] | 0.05 | 0.1 | 635 nm | 525-690 | 33 | shows a basal fluorescence; also recorded: fluorescent |  |  |  |
| Brilliant Blue [(F) Brilliant Blue] |  |  | 585 nm | 500-690 |  |  |  |  |  |
| CC(=O)Nc1ccc(S(=O)(=O)[O-])c2cc(S(=O)(=O)[O-])c(N=Nc3ccc(N=Nc4ccc(S(=O)(=O)[O-])cc4)c4ccc(S(=O)(=O)[O-])cc34)c(O)c12.[Na+].[Na+].[Na+].[Na+] [(J) Black Brilliant, Black Brilliant] | 0.05 | 0.1 | 571 nm | 475-670 |  |  |  |  |  |
| Ferritin [(H) Ferritin] |  |  | (no peak) | below 500 | 15 | fluorescent | fluorescent |  | 40 |

The next lines start with results.

| Maximum concentration in PCR (%) with 5 U Taq polymerase (SuperSalt Taq Polymerase) [%] | Maximum concentration in PCR (%) with 10 U Taq polymerase (SuperSalt Taq Polymerase) [%] | Absorbance spectrum peak [1] | Absorbance spectrum (estimated min-max) [1] | Intrinsic fluorescence (emission 666 nm) in % ([2]; red channel) [%] | Fluorescence at the emission wavelength of 666 nm (in words) ([2]; red channel) | Fluorescence at the emission wavelength of 570 nm (in words) [2] | Fluorescence of the solution in presence of the agent ([2]; red channel, solution without light absorbing agent = 100%, data not shown) | Molecule | Intrinsic fluorescence (emission 570 nm) in % [2] [%] |
| --- | --- | --- | --- | --- | --- | --- | --- | --- | --- |
| 0.05 | 0.1 | 565 nm | <400-675 |  |  |  |  | Black Intense [(A) Black Intense] |  |
| 0.5 | 1 |  |  |  |  |  |  | Blue Dextran [(B) Blue Dextran] |  |
|  |  | 508 nm | <400-585 | 18 | fluorescent | fluorescent |  | O=S(=O)([O-])c1cc(S(=O)(=O)[O-])c2c(N=Nc3ccc(S(=O)(=O)[O-])c4ccccc34)c(O)ccc2c1.[Na+].[Na+].[Na+] [(G) E124, E124] | 18 |
|  |  |  | below 700 |  |  |  |  | Melanine [(M) Melanine] |  |
| 0.05 |  | 609 nm | 525-675 |  |  |  |  | O=C1/C(=C2\Nc3ccc(S(=O)(=O)[O-])cc3C2=O)Nc2ccc(S(=O)(=O)[O-])cc21.[Na+].[Na+] [(C) E132, E132] |  |
